Assay results published in patent US5747269A, “Determination of peptide motifs on MHC molecules” (Max-Planck-Gesellschaft zur Forderung der Wissenschaften …, priority 1991, dated 1998).
Where no end group is shown, it is not given here.

Assays:
K^d = details: natural influenza epitope; cited from earlier work

| Sequence | match of the K^d-eluted self peptide sequence with the K^d-restricted consensus motif (H-2K^d) | K^d restriction / T cell epitope (K^d) |
| --- | --- | --- |
| SYFPEITHI [SYFPEITHI (SEQ ID NO:2)] | matches the consensus motif |  |
| TYQRTRALV [TYQRTRALV (SEQ ID NO:1)] |  | natural K^d -restricted influenza epitope |
